From patent US8785388B2, “TAT-BH3 methods for treating arthritis” (Saint Louis University, priority 2007, dated 2014)
Square brackets hold non-standard residues; d marks the D form. Peptide text beside a SMILES is read from it. Orn = NCCC[C@H](N)C(=O)O

Columns and labels:
[1] = system: macrophages in arthritic joints; assay: Macrophage numbers in ankle sections stained for F4/80 antigen; format: in vivo, mice
Source text: FIG. 4A is representative photomicrograph of ankle sections stained for F4/80 antigen from saline- and BH3-peptide treated mice.
TAT-BH3 peptides treatment reduces the numbers of myeloid cells in arthritic joints. Neutrophils and macrophages are required for the development of K/B×N serum transfer induced arthritis 40-42. To this end, the numbers of polymorphonuclear cell and macrophages in saline and BH3 peptide arthritic mice were quantified. […] The milieu of the RA joint is crucial for the initiation and the perpetuation of inflammatory arthritis. Previous studies have shown that mice lacking Bim display increased levels of pro-inflammatory factors in the joint that is associated with increased numbers of neutrophils and macrophages and more articular destruction.

[2] = biological target: Mcl-1 (Homo sapiens, UniProt Q07820); assay: Affinity for Mcl-1; format: binding; conditions: statement without data
Sequence of Mcl-1 (Q07820 whole entry, species assumed): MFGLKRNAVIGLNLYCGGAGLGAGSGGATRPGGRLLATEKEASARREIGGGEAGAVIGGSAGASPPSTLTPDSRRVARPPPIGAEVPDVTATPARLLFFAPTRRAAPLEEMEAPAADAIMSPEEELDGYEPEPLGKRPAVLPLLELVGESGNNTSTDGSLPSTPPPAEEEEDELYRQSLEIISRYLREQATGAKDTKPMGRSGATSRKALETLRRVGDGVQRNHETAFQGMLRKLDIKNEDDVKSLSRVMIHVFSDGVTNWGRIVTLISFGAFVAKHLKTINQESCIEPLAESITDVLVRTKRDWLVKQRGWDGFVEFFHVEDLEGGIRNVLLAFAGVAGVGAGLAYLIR

[3] = system: peripheral blood cells; assay: Peripheral blood cell counts (flow cytometry, hematology analyzer); format: in vivo, mice
Method: Peripheral blood and bone marrow were isolated from mice following euthanasia. Total leukocyte numbers were determined using an automated hematology analyzer ABX Pentra 60 (Diamond Diagnostics, Inc, Holliston, Mass.). The red blood cells in peripheral blood were lysed and the remaining cells were fixed with BD FACS lysing solution (BD Biosciences, Pharmingen) following incubation with antibodies. Bone marrow cells were isolated by flushing Dulbecco's Modified Eagle Medium (DMEM) (Gibco, Grand Island, N.Y.) through the tibias and red blood cells were lysed with BD PharM Lyse (BD Biosciences, Pharmingen) prior to incubation with antibodies. Cells with incubated with Fc Block (BD Biosciences, Pharmingen) then stained with fluorochrome conjugated antibodies to CD45, CD11b, Gr-1, CD62L, Ly-6C, Ly-6G, CD31 (BD Biosciences, Pharmingen) or isotype control antibodies for 30 minutes. Cells were acquired on a BD LSRII (BD Biosciences, Pharmingen) using Diva Software at the Saint Louis University Core Flow Cytometry Facility. All analysis was performed using FlowJo software (Tree Star Inc.).
Peripheral blood was isolated by cardiac sticks. Cells were blocked for 10 minutes with Fc block and then stained with anti-CD45, anti-CD19, anti-CD3, anti-CD4, anti-CDS, anti-CD11b, anti-Gr-1, and anti-CD62L antibodies for 30 minutes. Platelets and RBCs were determined on an automated hematology analyzer ABX Pentra 60. Following incubation with antibodies red blood cells were lysed and cells were fixed with Becton Dickenson FACS lysing solution.

[4] = system: K/B×N serum transfer-induced arthritis; assay: K/B×N serum transfer-induced arthritis, ankle circumference (joint swelling); format: in vivo, mice; conditions: for reduction of development of arthritis: day 4
Source text: The seven-week-old progeny from homozygous KRN TCR transgenic mice (C57BL/6 background) crossed with non-obese diabetes (NOD) mice (K/B×N) were euthanized, peripheral blood was isolated, and serum were collected and pooled. One hundred and fifty microliters of K/B×N serum were intraperitoneally injected on each flank of 6-week old wt mice.
At each time point and prior to euthanasia, the degree of arthritis as indicated by joint swelling was quantitated by measuring two perpendicular diameters of the ankles using a caliper (Lange Caliper: Cambridge Scientific Industries, Cambridge Mass.). Joint circumference was calculated using the geometric formula of ellipse circumference (2πX √(a^2+b^2)/2). Following euthanasia, serum was isolated from peripheral blood by cardiac stick and ankle joints were removed. One of the ankle joints was fixed in 10% neutral buffered formalin for 24 hours, decalcified in EDTA-decalcification buffer for two weeks, embedded in paraffin, and sectioned. The other ankle joint was placed in liquid nitrogen, grounded into a fine powder by mortal and pestle, digested in protein lysis buffer ([…], 0.5% NP-40, 50 mM Tris, and 2 mM EDTA) in the presence of phosphatase and protease inhibitors, and homogenized on ice for 20 seconds. To examine any toxicity due to systemic delivery of TAT-Bim peptides, alkaline phosphatase (ALP), […] (AST), alanine aminotransferase (ALT), and blood urea nitrogen levels were measured.
Therefore, peptides to the BH3 domain of Bim were used that are fused to polycationic peptide derived from HIV-1 TAT. These peptides have shown to activate Bak and Bax, suppress Bcl-2 and Mcl-1, induce mitochondrial permeability, and release mitochondrial cytochrome c. Mice were intraperitoneally injected with K/B×N serum to induce the effector phase of inflammatory arthritis.

[5] = as compared to TAT-inactive BH3
[6] = as compared to TAT-inactive BH3 and saline
[7] = peripheral blood, hematology analyzer, mean ± standard error
[8] = peripheral blood, mean ± standard error

CC[C@H](C)[C@H](NC(=O)[C@H](CCCNC(=N)N)NC(=O)[C@H](CCCNC(=N)N)NC(=O)[C@H](CC(C)C)NC(=O)[C@H](CCC(=O)O)NC(=O)[C@H](CCC(N)=O)NC(=O)[C@H](C)NC(=O)[C@@H](NC(=O)[C@H](Cc1c[nH]c2ccccc12)NC(=O)[C@@H](NC(=O)[C@H](CCC(=O)O)NC(=O)[C@H](CCCNC(=N)N)NC(=O)[C@H](CCCNC(=N)N)NC(=O)[C@H](CCCNC(=N)N)NC(=O)[C@H](CCCN)NC(=O)[C@H](CCCNC(=N)N)NC(=O)[C@H](CCCNC(=N)N)NC(=O)[C@H](CCCCN)NC(=O)[C@H](CCCCN)NC(=O)[C@H](CCCNC(=N)N)NC(C)=O)[C@@H](C)CC)[C@@H](C)CC)C(=O)NCC(=O)N[C@@H](CC(=O)O)C(=O)N[C@@H](CCC(=O)O)C(=O)N[C@@H](Cc1ccccc1)C(=O)N[C@@H](CC(N)=O)C(=O)N[C@@H](C)C(=O)N[C@@H](Cc1ccc(O)cc1)C(=O)N[C@@H](Cc1ccc(O)cc1)C(=O)N[C@@H](C)C(=O)N[C@@H](CCCNC(=N)N)C(=O)O [TAT-BH3] (Ac-RKKRR[Orn]RRREIWIAQELRRIGDEFNAYYAR-OH)
average number of macrophages in the synovial lining [1, 5]: no statistical difference | decrease in numbers of macrophages within the pannus region [1, 5]: 68% | decrease in numbers of macrophages within the pannus region ([1]; as compared to saline): 77% | affinity for Mcl-1 [2]: high affinity | decrease in platelets [3, 5]: 29% | number of circulating leukocytes [3, 6]: did not reduce | number of red blood cells [3, 6]: did not reduce | decrease in numbers of neutrophils in peripheral blood ([3]; as compared to TAT-inactive peptide and saline): 40% | decrease in platelets ([3]; as compared to saline): 23% | effect on platelet counts ([3]; general statement): minimal effect | Platelets [3, 7]: 930.3 ± 55.32 (1E6) | RBCs [3, 7]: 9.60 ± 0.42 (1E6) | B-cells+ [3, 8]: 2.51 ± 0.11 (1E6) | CD4+ T-cells [3, 8]: 1.25 ± 0.06 (1E6) | CD8+ T-cells [3, 8]: 0.86 ± 0.04 (1E6) | Inflammatory monocytes [3, 8]: 0.26 ± 0.03 (1E6) | N-K-cells [3, 8]: 0.23 ± 0.02 (1E6) | Resident Monocytes [3, 8]: 0.21 ± 0.02″ (1E6) | T-cells [3, 8]: 2.20 ± 0.10 (1E6) | Total Leukocytes [3, 8]: 6.2 ± 0.22 (1E6) | change in ankle circumference ([4]; day 2 after K/B×N serum, 2 mg/kg i.p.): 0.1 mm | reduction of development of arthritis ([4]; as compared to TAT-inactive BH3 peptide): 72% | reduction of development of arthritis ([4]; as compared to saline): 80%
